Test systems include KM12; M14; SK-OV-3; SW-620; HCT-15; UO-31; SK-MEL-2; HCC 2998; MOLT-4; IGROV-1; K562; OVCAR-4; SK-MEL-5; SNB-75; HCT-116; SNB-19; CCRF-CEM; OVCAR-3; OVCAR-8; SK-MEL-28.
Test in all cases: growth of human tumour cells (NCI), 48 h

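Cultured in 96-well plates, cells were exposed to test compound for 48 hours across five concentrations. GI50 marks 50% less growth.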 Activity calls are given as the source filed them. No stated cut-off is given here; in the data, active = GI50 up to about 1.1 µM and inactive = higher. Square brackets hold non-standard residues; d marks the D form. Peptide text beside a SMILES is read from it. * marks the point of attachment. Boc = CC(C)(C)OC(=O)*; Lac = C[CH](O)C(=O)O; OBn = c1ccc(CO*)cc1 Where only a bound is given, the exact number is not on record here.

As to `Cc1n[nH]c(CC#N)n1`, the GI50 with KM12 was > 100 µM (inactive); with M14 it was > 100 µM (inactive); in the test on SK-OV-3, > 100 µM (inactive); in the test with SW-620, > 100 µM (inactive); in the test with HCT-15, above 100 µM; in the test with UO-31, > 100 µM (inactive). In addition, the GI50 with SK-MEL-2, with HCC 2998, with MOLT-4, in the test with IGROV-1, in the test on K562 and in the test on OVCAR-4 was > 100 µM (inactive) each time. In addition, the GI50 with SK-MEL-5, in the test on SNB-75, in the test with HCT-116, in the test with SNB-19, in the test with CCRF-CEM and in the test with OVCAR-3 was > 100 µM (inactive) in each case. The GI50 in the test on OVCAR-8 is > 100 µM (inactive).
`Nc1ccccc1C(=O)N/N=C1\C(=O)Nc2ccccc21`: the GI50 in the test on KM12 was 88.5 µM (inactive); with M14, > 100 µM (inactive); in the test with SK-OV-3, > 100 µM (inactive); in the test with HCT-15 it was above 100 µM; in the test on UO-31, > 100 µM (inactive); in the test with SK-MEL-2, > 100 µM (inactive). The GI50 in the test on HCC 2998 is > 100 µM (inactive); with MOLT-4 it was > 100 µM (inactive); with IGROV-1 it was 64 µM (inactive); with K562 it was > 100 µM (inactive); in the test with OVCAR-4, > 100 µM (inactive); with SK-MEL-5, > 100 µM (inactive). For the same compound, the GI50 in the test on SNB-75 was 23.9 µM (inactive); with HCT-116, > 100 µM (inactive); with SNB-19, 35.4 µM (inactive); in the test with CCRF-CEM it was > 100 µM (inactive); in the test on OVCAR-3, > 100 µM (inactive); in the test with OVCAR-8, > 100 µM (inactive).
Regarding `Cn1c(=O)c(C#N)c(O)c2cc3ccccc3nc21`, the GI50 was > 100 µM (inactive) in the test on KM12; > 100 µM (inactive) in the test with SK-MEL-28; > 100 µM (inactive) in the test on M14; > 100 µM (inactive) in the test on SK-OV-3; > 100 µM (inactive) in the test on SW-620; above 100 µM in the test on HCT-15. Besides, the GI50 with UO-31, in the test on SK-MEL-2, with HCC 2998, in the test with MOLT-4, in the test with IGROV-1 and in the test with K562 was > 100 µM (inactive) each time. For the same compound, the GI50 is > 100 µM (inactive) in the test on OVCAR-4; > 100 µM (inactive) with SK-MEL-5; 44.1 µM (inactive) with SNB-75; > 100 µM (inactive) with HCT-116; > 100 µM (inactive) in the test with SNB-19; > 100 µM (inactive) with CCRF-CEM. Moreover, the GI50 with OVCAR-8 was > 100 µM (inactive).
Consider `CC/C=C\C/C=C\C/C=C\CCCCCCCC(=O)OC` [METHYL LINOLENATE], for which the GI50 in the test with KM12 was > 100 µM (inactive); in the test on SK-MEL-28, > 100 µM (inactive); in the test on SK-OV-3 it was > 100 µM (inactive); in the test on SW-620 it was > 100 µM (inactive); with HCT-15, above 100 µM; with UO-31, > 100 µM (inactive). In addition, the GI50 with SK-MEL-2 is > 100 µM (inactive); with HCC 2998, > 100 µM (inactive); in the test with MOLT-4, 87.5 µM (inactive); in the test on IGROV-1, > 100 µM (inactive); in the test with K562 it was 45.5 µM (inactive); with OVCAR-4 it was > 100 µM (inactive). Further, the GI50 is > 100 µM (inactive) with SK-MEL-5; 67.6 µM (inactive) with SNB-75; 91.6 µM (inactive) in the test with HCT-116; > 100 µM (inactive) with SNB-19; 45.8 µM (inactive) in the test with CCRF-CEM; > 100 µM (inactive) in the test on OVCAR-3. Moreover, the GI50 in the test on OVCAR-8 was > 100 µM (inactive).
Take `O=C(NN1C(=O)CSC1c1cccc(F)c1)c1ccncc1` (centres undefined): the GI50 with KM12 was > 100 µM (inactive); with SK-MEL-28 it was > 100 µM (inactive); with M14, > 100 µM (inactive); in the test with SK-OV-3, > 100 µM (inactive); with SW-620 it was > 100 µM (inactive); with HCT-15, above 100 µM. In addition, the GI50 in the test on UO-31, in the test on SK-MEL-2, with HCC 2998, in the test with MOLT-4, with IGROV-1 and in the test with K562 was > 100 µM (inactive) each time. The GI50 with OVCAR-4, in the test with SK-MEL-5, in the test on SNB-75, in the test on SNB-19, in the test on CCRF-CEM and in the test with OVCAR-8 was > 100 µM (inactive) in each case.
With `Cc1cc(=O)c2c([nH]1)NS(=O)(=O)NC2=O`, the GI50 in the test on KM12 was > 100 µM (inactive); in the test on SK-MEL-28, > 100 µM (inactive); in the test with M14, > 100 µM (inactive); in the test on SK-OV-3 it was > 100 µM (inactive); with SW-620, > 100 µM (inactive); in the test with HCT-15, above 100 µM. Further, the GI50 in the test on UO-31, with SK-MEL-2, with HCC 2998, in the test with MOLT-4, in the test on IGROV-1 and with K562 was > 100 µM (inactive) in each case. Also, the GI50 with OVCAR-4, in the test on SNB-75, with HCT-116, in the test with SNB-19, in the test on CCRF-CEM and in the test on OVCAR-3 was > 100 µM (inactive) in each case. Moreover, in the test with OVCAR-8, the GI50 was > 100 µM (inactive).
In the case of `CC(OC(=O)C(Cc1ccccc1)NC(=O)C(Cc1ccccc1)NC(=O)OC(C)(C)C)C(=O)OCc1ccccc1` (stereo not drawn) (Boc-Phe-Phe-[Lac]-OBn; configuration not given here), the GI50 with KM12 was > 100 µM (inactive); in the test on SK-MEL-28, > 100 µM (inactive); in the test with M14 it was 87.1 µM (inactive); with SK-OV-3, > 100 µM (inactive); in the test with HCT-15, above 100 µM; with UO-31, > 100 µM (inactive). For the same compound, the GI50 in the test on SK-MEL-2, in the test with HCC 2998, with MOLT-4, in the test with IGROV-1, in the test on K562 and in the test with SK-MEL-5 was > 100 µM (inactive) throughout. In addition, the GI50 is 93.1 µM (inactive) in the test with SNB-75; > 100 µM (inactive) in the test on HCT-116; > 100 µM (inactive) in the test with SNB-19; > 100 µM (inactive) in the test on CCRF-CEM; > 100 µM (inactive) in the test on OVCAR-3; > 100 µM (inactive) in the test with OVCAR-8.
Consider `O=C1Nc2ccc(Cl)cc2/C1=C\c1c(Cl)nc2sccn12`, for which the GI50 with KM12 was 2.25 µM (inactive); in the test with SK-MEL-28, > 100 µM (inactive); in the test with M14, 34.2 µM (inactive); in the test on SK-OV-3, 36.8 µM (inactive); in the test with SW-620, 14.8 µM (inactive); with HCT-15 it was 2.67 µM. Moreover, the GI50 in the test on UO-31 is > 100 µM (inactive); with SK-MEL-2, 0.314 µM (active); in the test on HCC 2998, 2.14 µM (inactive); in the test on MOLT-4 it was 2.59 µM (inactive); in the test on IGROV-1 it was 8.51 µM (inactive); with K562, 0.156 µM (active). The GI50 was > 100 µM (inactive) in the test with OVCAR-4; > 100 µM (inactive) in the test on SNB-75; 4.23 µM (inactive) with HCT-116; > 100 µM (inactive) in the test with SNB-19; 10.6 µM (inactive) in the test on CCRF-CEM; 3.32 µM (inactive) in the test on OVCAR-3. Besides, the GI50 in the test on OVCAR-8 is 50.8 µM (inactive).

The values above are taken from ChEMBL document CHEMBL1201862, “PubChem BioAssay data set” (2004).
